# From patent US8518883B2, “Method of reducing deleterious effects of ischemia by administration of a thrombopoietin receptor ligand” (MCW Research Foundation, Inc., priority 2006, dated 2013)
# Legend:
# in vitro rat hearts = assay: Isolated perfused (Langendorff) rat heart, 25 min global ischemia and 180 min reperfusion: hemodynamics, infarct size, recovery of LVDP
# Description: The study was directed to determining whether Tpo (0.01-10.0 ng/ml) confers immediate cardioprotection in rat hearts and the contribution of potassium channels to the underlying mechanism. Hearts from normoxic 8 week old Sprague Dawley rats (n=8/group) were isolated and perfused in the Langendorff mode. Hemodynamic function was recorded under steady-state conditions prior to 25 minutes global no flow ischemia and 180 minutes reperfusion.
# Isolated heart perfusion. Isolated rat hearts were perfused with bicarbonate buffer at constant pressure in a retrograde manner and instrumented as described in Baker, et al., Am. J. Physiol. Heart Circulat. Physiol. 278:1395-1400, 2000 potassium channel blockers were added to this perfusate as needed. A 3-way tap, located immediately above the site of cannulation, allowed the entire perfusate to be diverted away from the heart to produce global, no-flow ischemia. Reperfusion was achieved by repositioning of the tap to allow perfusate to be delivered to the heart. Left ventricular function was monitored continuously throughout each experiment as described in Baker, et al., supra, 2000. End-diastolic pressure was initially set to 3 mmHg for 2 minutes. The balloon was then progressively inflated with a microsyringe to set end-diastolic pressures to 8 mmHg for the left ventricle, with developed pressure and heart rate recorded during steady-state conditions. Coronary flow rate was measured throughout the experiment by timed collections of the coronary effluent from the right side of the heart into a graduated cylinder. Coronary flow rate was expressed as milliliters per minute per gram wet weight.
# Resistance to myocardial ischemia. Hearts from adult rats were perfused with bicarbonate buffer, and biventricular function was monitored continuously throughout each experiment as described in Baker, et al., supra, 2000. For concentration response studies, hearts were then perfused with Tpo (0.01-10.0 ng/ml) for 15 minutes prior to 25 minutes ischemia and 180 minutes reperfusion. For mechanism studies with potassium channel blockers, hearts were perfused with drugs for 15 minutes alone followed by 15 minutes in combination with Tpo prior to ischemia. Hearts perfused with potassium channel blockers alone in the absence of Tpo for 30 minutes prior to ischemia served as untreated controls for these studies. Recovery of post-ischemic left ventricular developed pressure was expressed as a percentage of its pre-drug, pre-ischemic value.
# Assessment of ventricular function. Left ventricular function was monitored continuously throughout each experiment as described in Baker, et al., supra, 2000. Recovery of left ventricular pressure following ischemia was used to assess resistance to ischemia.
# Measurement of infarct size/area at risk at 3 hours reperfusion were used to assess resistance to myocardial ischemia. For characterization of infarction size, hearts were perfused with 10 ml bicarbonate buffer containing triphenyltetrazolium chloride (SIGMA) at 37° C.
# The heart was sectioned in 2 mm segments from apex to atrio-ventricular groove in a transverse fashion. Each segment was recorded and placed in formalin. After twenty-four (24) hours, the specimen was digitally photographed in a camera mount to normalize specimen-to-lens distance. Each photograph was then appended to Adobe Photoshop (Adobe™) to measure pixel density of infarcted versus non-infarcted areas. The percentage of infarction of each slide was expressed as a percentage of the entire area of the heart.
# Hearts from male Sprague Dawley rats at 8 weeks of age were isolated and perfused with Tpo at 0.01, 0.1, 1.0, and 10 ng/ml for 15 minutes prior to 25 minutes global ischemia and 180 minutes reperfusion (FIG. 2). Tpo (1.0 ng/ml) reduced coronary flow rate prior to ischemia from 6±1 ml/min/g to 5±1 ml/min/g, increased left ventricular developed pressure from 119±15 mmHg to 151±19 mmHg and decreased heart rate from 240±34 beats/minute to 228±17 beats/minute. […]
# Sprague Dawley rats = assay: Coronary artery ligation model, Tpo given after the onset of reperfusion; type: in vivo, rat; conditions: Tpo 0.05 μg/kg i.v. 10 seconds following reperfusion after 30 min regional ischemia
# Description: FIG. 10 is a graphic depiction of the effect of Tpo (0.05 μg/kg) on myocardial infarct size in vivo (as percentage % of area at risk) when administered intravenously 10 seconds after the onset of 3 hours reperfusion following 30 minutes regional myocardial ischemia in vivo induced by suture ligation of the left main coronary artery. *=P<0.05, with Tpo vs. without Tpo (control).
# Animals used in this study were adult male Sprague Dawley rats (200-350 g, generally 300 g). Animals were housed under standard conditions and allowed to feed ad lib. The Animal Care and Use Committee of the Medical College of Wisconsin approved all procedures performed in accordance with the regulations adopted by the National Institutes of Health.
# A myocardial infarction was produced via the ligation of the left main artery using 6-0 prolene suture (See, e.g., Clements-Jewery, et al., supra, 2002; Farkas, et al., supra, 2002). Rats were anesthetized with sodium pentobarbital (50 mg/kg i.p.). The left main coronary artery was identified and ligated with a 5-0 Prolene suture threaded through a polyethylene tube to act as an occluder. […]
# The heart was sectioned in 2 mm segments from apex to atrio-ventricular groove in a transverse fashion. Each segment was recorded and placed in formalin. […] The percentage of infarction of each slide was expressed as a percentage of the entire area of the heart.
# [1] = POST DRUG, Tpo 0.01 ng/ml for 15 min
# [2] = POST DRUG, Tpo 0.1 ng/ml for 15 min
# [3] = POST DRUG, Tpo 1.0 ng/ml for 15 min
# [4] = POST DRUG, Tpo 10.0 ng/ml for 15 min
# [5] = REPERFUSION, Tpo 0.01 ng/ml, 25 min global ischemia, 180 min reperfusion
# [6] = REPERFUSION, Tpo 0.1 ng/ml, 25 min global ischemia, 180 min reperfusion
# [7] = REPERFUSION, Tpo 1.0 ng/ml, 25 min global ischemia, 180 min reperfusion
# [8] = REPERFUSION, Tpo 10.0 ng/ml, 25 min global ischemia, 180 min reperfusion
# [9] = Tpo 0.01-10.0 ng/ml for 15 min prior to 25 min global ischemia, 180 min reperfusion
substance,measurement,setting,value
Thrombopoietin [Tpo],Infarct size following ischemia and reperfusion,"in vitro rat hearts; 'U' shaped concentration-dependent, Tpo 0.01-10.0 ng/ml",reduced
same,Coronary flow rate,in vitro rat hearts; [1],5 ± 1 mL/min/g
same,Heart rate,in vitro rat hearts; [1],202 ± 16 beats/min
same,Left ventricle developed pressure,in vitro rat hearts; [1],156 ± 13 mmHg
same,Coronary flow rate,in vitro rat hearts; [2],5 ± 1 mL/min/g
same,Heart rate,in vitro rat hearts; [2],233 ± 12 beats/min
same,Left ventricle developed pressure,in vitro rat hearts; [2],158 ± 13 mmHg
same,Coronary flow rate,in vitro rat hearts; [3],5 ± 1 mL/min/g
same,Heart rate,in vitro rat hearts; [3],228±17 beats/min
same,Left ventricle developed pressure,in vitro rat hearts; [3],151±19 mmHg
same,Coronary flow rate,in vitro rat hearts; [4],6 ± 1 mL/min/g
same,Heart rate,in vitro rat hearts; [4],220 ± 10 beats/min
same,Left ventricle developed pressure,in vitro rat hearts; [4],172 ± 26 mmHg
same,Coronary flow rate,"in vitro rat hearts; PRE DRUG, Tpo 0.01 ng/ml group",6 ± 1 mL/min/g
same,Heart rate,"in vitro rat hearts; PRE DRUG, Tpo 0.01 ng/ml group",225 ± 31 beats/min
same,Left ventricle developed pressure,"in vitro rat hearts; PRE DRUG, Tpo 0.01 ng/ml group",130 ± 13 mmHg
same,Coronary flow rate,"in vitro rat hearts; PRE DRUG, Tpo 0.1 ng/ml group",5 ± 1 mL/min/g
same,Heart rate,"in vitro rat hearts; PRE DRUG, Tpo 0.1 ng/ml group",228 ± 17 beats/min
same,Left ventricle developed pressure,"in vitro rat hearts; PRE DRUG, Tpo 0.1 ng/ml group",120 ± 15 mmHg
same,Coronary flow rate,"in vitro rat hearts; PRE DRUG, Tpo 1.0 ng/ml group",6 ± 1 mL/min/g
same,Heart rate,"in vitro rat hearts; PRE DRUG, Tpo 1.0 ng/ml group",240±34 beats/min
same,Left ventricle developed pressure,"in vitro rat hearts; PRE DRUG, Tpo 1.0 ng/ml group",119±15 mmHg
same,Coronary flow rate,"in vitro rat hearts; PRE DRUG, Tpo 10.0 ng/ml group",6 ± 1 mL/min/g
same,Heart rate,"in vitro rat hearts; PRE DRUG, Tpo 10.0 ng/ml group",226 ± 29 beats/min
same,Left ventricle developed pressure,"in vitro rat hearts; PRE DRUG, Tpo 10.0 ng/ml group",134 ± 13 mmHg
same,Coronary flow rate,in vitro rat hearts; [5],3 ± 1 mL/min/g
same,Heart rate,in vitro rat hearts; [5],184 ± 31 beats/min
same,Left ventricle developed pressure,in vitro rat hearts; [5],52 ± 9 mmHg
same,Coronary flow rate,in vitro rat hearts; [6],3 ± 1 mL/min/g
same,Heart rate,in vitro rat hearts; [6],197 ± 36 beats/min
same,Left ventricle developed pressure,in vitro rat hearts; [6],64 ± 11 mmHg
same,Coronary flow rate,in vitro rat hearts; [7],4 ± 1 mL/min/g
same,Heart rate,in vitro rat hearts; [7],204 ± 41 beats/min
same,Left ventricle developed pressure,in vitro rat hearts; [7],62 ± 8 mmHg
same,Coronary flow rate,in vitro rat hearts; [8],4 ± 1 mL/min/g
same,Heart rate,in vitro rat hearts; [8],183 ± 16 beats/min
same,Left ventricle developed pressure,in vitro rat hearts; [8],64 ± 10 mmHg
same,Recovery of coronary flow rate,in vitro rat hearts; Tpo 1.0 ng/ml,unaffected
same,Recovery of heart rate,"in vitro rat hearts; Tpo 1.0 ng/ml, untreated hearts 94±6%",85±7 % of pre-ischemic values
same,Optimal concentration of Tpo that afforded maximum reduction of infarct size,in vitro rat hearts; [9],1.0 ng/mL
same,Optimal concentration that afforded maximal recovery of post-ischemic ventricular developed pressure,in vitro rat hearts; [9],1.0 ng/mL
same,Recovery of left ventricular developed pressure following ischemia and reperfusion,"in vitro rat hearts; bell-shaped concentration-dependent, Tpo 0.01-10.0 ng/ml",increased
same,Myocardial infarct size,Sprague Dawley rats,decrease
